“And” between values parts separate entries of the source, which are not always exact repeats. Identical values can stand only once.
Conditions: Liquid, Vibrating tube method

CCCCC(=O)OCC(COC(=O)CCCC)(COC(=O)CCCC)COC(=O)CCCC [pentaerythritol tetrapentanoate]
Conditions | mass density
343.14 K, 22204 kPa | 994.9 kg/m3
343.14 K, 22235 kPa | 994.9 kg/m3
343.14 K, 22267 kPa | 995 kg/m3
343.14 K, 22298 kPa | 995 kg/m3
343.14 K, 22334 kPa | 995 kg/m3
343.14 K, 22365 kPa | 994.9 kg/m3
343.14 K, 22395 kPa | 994.9 kg/m3
343.14 K, 22432 kPa | 994.9 kg/m3
343.14 K, 22462 kPa | 995.1 kg/m3
343.14 K, 22494 kPa | 995 kg/m3
343.14 K, 22562 kPa | 995.1 kg/m3
343.14 K, 22594 kPa | 995 kg/m3
343.14 K, 22728 kPa | 995.2 kg/m3
343.14 K, 22766 kPa | 995.2 kg/m3
343.14 K, 22798 kPa | 995.3 kg/m3
343.14 K, 22830 kPa | 995.3 kg/m3
343.14 K, 22868 kPa | 995.3 kg/m3
343.14 K, 22901 kPa | 995.4 kg/m3
343.14 K, 22933 kPa | 995.4 kg/m3
343.14 K, 22971 kPa | 995.4 kg/m3
343.14 K, 23004 kPa | 995.4 kg/m3
343.14 K, 23038 kPa | 995.4 kg/m3
343.14 K, 23077 kPa | 995.5 kg/m3
343.14 K, 23110 kPa | 995.5 kg/m3
343.14 K, 23144 kPa | 995.4 kg/m3
343.14 K, 23177 kPa | 995.5 kg/m3
343.14 K, 23217 kPa | 995.5 kg/m3
343.14 K, 23284 kPa | 995.6 kg/m3
343.14 K, 23357 kPa | 995.6 kg/m3
343.14 K, 23391 kPa | 995.5 kg/m3
343.14 K, 23432 kPa | 995.8 kg/m3
343.14 K, 23500 kPa | 995.8 kg/m3
343.14 K, 23535 kPa | 995.9 kg/m3
343.14 K, 23577 kPa | 995.7 kg/m3
343.14 K, 23612 kPa | 995.8 kg/m3
343.14 K, 23646 kPa | 995.8 kg/m3
343.14 K, 23687 kPa | 995.8 kg/m3
343.14 K, 23722 kPa | 995.9 kg/m3
343.14 K, 23757 kPa | 995.9 kg/m3
343.14 K, 23799 kPa | 995.9 kg/m3
343.14 K, 23834 kPa | 996 kg/m3
343.14 K, 23870 kPa | 996 kg/m3
343.14 K, 23913 kPa | 996.1 kg/m3
343.14 K, 23949 kPa | 996.2 kg/m3
343.14 K, 24100 kPa | 996 kg/m3
343.14 K, 24817 kPa | 996.7 kg/m3
343.14 K, 25020 kPa | 996.6 kg/m3
343.14 K, 25061 kPa | 996.8 kg/m3
343.14 K, 25102 kPa | 996.8 kg/m3
343.14 K, 25142 kPa | 996.7 kg/m3
343.14 K, 25188 kPa | 996.9 kg/m3
343.14 K, 25228 kPa | 996.9 kg/m3
343.14 K, 25406 kPa | 996.9 kg/m3
343.14 K, 25451 kPa | 997.1 kg/m3
343.14 K, 25495 kPa | 997 kg/m3
343.14 K, 25549 kPa | 997 kg/m3
343.14 K, 25596 kPa | 997.1 kg/m3
343.14 K, 25644 kPa | 997.2 kg/m3
343.14 K, 25691 kPa | 997.1 kg/m3
343.14 K, 25745 kPa | 997.1 kg/m3
343.14 K, 25792 kPa | 997.2 kg/m3
343.14 K, 25943 kPa | 997.2 kg/m3
343.14 K, 25992 kPa | 997.3 kg/m3
343.14 K, 26041 kPa | 997.5 kg/m3
343.14 K, 26099 kPa | 997.5 kg/m3
343.14 K, 26149 kPa | 997.5 kg/m3
343.14 K, 30161 kPa | 1000.1 kg/m3
343.14 K, 32316 kPa | 1001.3 kg/m3
343.14 K, 32354 kPa | 1001.4 kg/m3
343.14 K, 32399 kPa | 1001.4 kg/m3
343.14 K, 32523 kPa | 1001.6 kg/m3
343.15 K, 106.2 kPa | 978.6 kg/m3
343.15 K, 106.4 kPa | 978.5 kg/m3 and 978.6 kg/m3
343.15 K, 106.6 kPa | 978.5 kg/m3
343.15 K, 106.7 kPa | 978.6 kg/m3
343.15 K, 106.8 kPa | 978.6 kg/m3
343.15 K, 106.9 kPa | 978.6 kg/m3
343.15 K, 107.4 kPa | 978.6 kg/m3
343.15 K, 109.5 kPa | 978.6 kg/m3
343.15 K, 114.4 kPa | 978.4 kg/m3
343.15 K, 120 kPa | 978.7 kg/m3
343.15 K, 122.2 kPa | 978.7 kg/m3
343.15 K, 125.2 kPa | 978.7 kg/m3
343.15 K, 129.2 kPa | 978.7 kg/m3
343.15 K, 133.3 kPa | 978.6 kg/m3
343.15 K, 138.9 kPa | 978.6 kg/m3
343.15 K, 146.6 kPa | 978.5 kg/m3
343.15 K, 154.5 kPa | 978.6 kg/m3
343.15 K, 164.6 kPa | 978.5 kg/m3
343.15 K, 180.1 kPa | 978.6 kg/m3
343.15 K, 197 kPa | 978.6 kg/m3
343.15 K, 217.8 kPa | 978.7 kg/m3
343.15 K, 250.8 kPa | 978.7 kg/m3
343.15 K, 286.7 kPa | 978.8 kg/m3
343.15 K, 330.1 kPa | 978.8 kg/m3
343.15 K, 380.3 kPa | 978.7 kg/m3
343.15 K, 749.2 kPa | 979 kg/m3
343.15 K, 1709.2 kPa | 979.9 kg/m3
343.15 K, 1788.2 kPa | 980 kg/m3
343.15 K, 1843.4 kPa | 979.8 kg/m3
343.15 K, 1867.5 kPa | 979.9 kg/m3
343.15 K, 1894.4 kPa | 980 kg/m3
343.15 K, 1917.3 kPa | 979.9 kg/m3
343.15 K, 1941.1 kPa | 980 kg/m3
343.15 K, 1965.4 kPa | 980.1 kg/m3
343.15 K, 1994.4 kPa | 979.9 kg/m3
343.15 K, 2019 kPa | 980.2 kg/m3
343.15 K, 2044.9 kPa | 980.2 kg/m3
343.15 K, 2075.6 kPa | 980 kg/m3
343.15 K, 2102.6 kPa | 980 kg/m3
343.15 K, 2129.9 kPa | 980.2 kg/m3
343.15 K, 2163.5 kPa | 980.2 kg/m3
343.15 K, 2193.4 kPa | 980.1 kg/m3
343.15 K, 2252.9 kPa | 980.3 kg/m3
343.15 K, 2352.8 kPa | 980.3 kg/m3
343.15 K, 2494.2 kPa | 980.5 kg/m3
343.15 K, 2573.8 kPa | 980.5 kg/m3
343.15 K, 2651 kPa | 980.7 kg/m3
343.15 K, 2698.2 kPa | 980.6 kg/m3
343.15 K, 2738.4 kPa | 980.4 kg/m3
343.15 K, 2779.7 kPa | 980.7 kg/m3
343.15 K, 2830.5 kPa | 980.7 kg/m3
343.15 K, 2972.7 kPa | 980.9 kg/m3
343.15 K, 3068.2 kPa | 981 kg/m3
343.15 K, 3117.1 kPa | 980.9 kg/m3
343.15 K, 3897.8 kPa | 981.5 kg/m3
343.15 K, 3924.9 kPa | 981.5 kg/m3
343.15 K, 3952.8 kPa | 981.6 kg/m3
343.15 K, 3986.3 kPa | 981.7 kg/m3
343.15 K, 4014.7 kPa | 981.6 kg/m3
343.15 K, 4043.6 kPa | 981.7 kg/m3
343.15 K, 4073 kPa | 981.8 kg/m3
343.15 K, 4107.7 kPa | 981.6 kg/m3
343.15 K, 4137.6 kPa | 981.7 kg/m3
343.15 K, 4168.8 kPa | 981.8 kg/m3
343.15 K, 4199.3 kPa | 981.8 kg/m3
343.15 K, 4230.1 kPa | 981.9 kg/m3
343.15 K, 4267.5 kPa | 981.9 kg/m3
343.15 K, 4299.4 kPa | 981.8 kg/m3
343.15 K, 4597.4 kPa | 982 kg/m3
343.15 K, 4629.6 kPa | 982.1 kg/m3
343.15 K, 4643.1 kPa | 982 kg/m3
343.15 K, 4660.4 kPa | 982.2 kg/m3
343.15 K, 4661.1 kPa | 982.1 kg/m3
343.15 K, 4661.7 kPa | 982.1 kg/m3
343.15 K, 4662.3 kPa | 982.1 kg/m3
343.15 K, 4662.6 kPa | 982 kg/m3
343.15 K, 4663.1 kPa | 982.2 kg/m3
343.15 K, 4754 kPa | 982 kg/m3
343.15 K, 4934.5 kPa | 982.4 kg/m3
343.15 K, 4956.5 kPa | 982.3 kg/m3
343.15 K, 4979.2 kPa | 982.3 kg/m3
343.15 K, 5005.6 kPa | 982.4 kg/m3
343.15 K, 5027.6 kPa | 982.5 kg/m3
343.15 K, 5050.1 kPa | 982.4 kg/m3
343.15 K, 5076.2 kPa | 982.3 kg/m3
343.15 K, 5120.9 kPa | 982.4 kg/m3
343.15 K, 5279.4 kPa | 982.6 kg/m3
343.15 K, 5366.4 kPa | 982.7 kg/m3
343.15 K, 5392 kPa | 982.8 kg/m3

Reference: the NIST ThermoML archive (doi:10.1021/je060271a)
